Source: PubChem BioAssay AID1963835 (Molecular Pharmacology Branch, DTP, NCI, 2024)
“And” between values parts separate entries of the source, which are not always exact repeats. Identical values can stand only once.

Tested on: 699152-130-R-J1-PDC complex spheroid viability
Assay: Anticancer human tumor 699152-130-R-J1-PDC patient-derived pancreatic carcinoma cell line growth inhibition [POLQ]
Details: for viability, T/C: stronger effect = lower value
Method: Multicellular complex tumor spheroid response to Polymerase (POL) inhibitors (novobiocin, ART-558, RP6685) in combination with a variety of drugs and investigational agents in selected tumor cell lines
The POL inhibitors (novobiocin, ART-558, and RP6685) were evaluated both individually and in combination with standard of care and investigational anticancer small molecules within a complex spheroid model of solid tumors. . Complex spheroids include a stromal component modeled by human endothelial cells (HUVEC) and fibroblasts modeled by human mesenchymal stem cells (MSCs). The concentration ranges selected for each drug and investigational agent were based upon clinically achievable concentrations if the clinical Cmax of the agent was known.
Compounds. The drugs and investigational agents: novobiocin (NSC847541), ART-558 (NSC835418), RP-6685 (NSC848927), peposertib (NSC802822), ceralasertib (NSC780249), elimusertib (NSC800525), camonsertib (NSC841442), AZD-1390 (NSC803789), olaparib (NSC753686), talazoparib (NSC767125), rucaparib (NSC756644), sotorasib (NSC818433), MRTX-1133 (NSC836407), SN-38 (NSC673596), topotecan (NSC609699), epotoside (NSC141540), doxorubicin (NSC123127), gemcitabine (NSC613327), 5-fluorouracil (NSC19893), paclitaxel (NSC125973), vemurafenib (NSC761431), MSA-2 (NSC828583), SN-011 (NSC837082), adavosertib (NSC754352), prexasertib (NSC758257), carboplatin (NSC241240) and oxaliplatin (NSC266046), were obtained from the National Cancer Institute (NCI) Developmental Therapeutics Program Chemical Repository (21). The FDA-approved anticancer drug set is available from the Developmental Therapeutics Program at https://dtp.cancer.gov/organization/dscb/obtaining/. […] The stock solutions were prepared in dimethyl sulfoxide (DMSO, Sigma-Aldrich, St. Louis, MO, cat. D2650), except for the platinum compounds which were prepared in saline (Quality Biological, Gaithersburg, MD, cat. 114-055-101), at 800-fold the tested concentration and stored at -70 degrees C prior to their use. All drugs and investigational agents were tested over a range starting from a high concentration at or near the clinical Cmax and decreasing in half-log increments. If the clinical Cmax for an agent had not been determined, the highest concentration tested was 10 microM, except for SN-38, which was tested at a high concentration of 1 microM.
Cell Culture. All cells were maintained in an incubator at 37 degrees C and 5% CO2 with 95% humidity. The PDC lines were cultured according to standard operating procedures established by the NCI PDMR (https://pdmr.cancer.gov). Table 3 of the manuscript, lists the cell lines along with the number of the three cell types plated to form the mct-spheroids and media for tumor cell growth. After thawing, all PDC lines, except 997537-175-T-J1-PDC and 415267-285-R-J2-PDC, were cultured in Matrigel-coated flasks prepared with a working solution of 1X Ham's F-12 nutrient mix, without supplementation (Thermo Fisher Scientific, cat. 11765054), 100 U/mL penicillin-streptomycin (Thermo Fisher Scientific, cat. 15140122), and 2.5% Matrigel (Corning Inc., Corning, NY, cat. 354248) for the first three passages. The two PDC lines 997537-175-T-J1-PDC and 415267-285-R-J2-PDC were cultured on uncoated flasks. The 857933-349-R-J2-PDC line was cultured in 6C/Colon 1B media containing advanced DMEM/F-12 (Thermo Fisher Scientific, cat. 12634028), 10 mM HEPES (Thermo Fisher Scientific, cat. 15630080), 1X GlutaMAX supplement (Thermo Fisher Scientific, cat. 35050061), 0.1 mg/mL primocin (InvivoGen, San Diego, CA, cat. ant-pm-2), 10% defined fetal bovine serum, heat inactivated (HyClone Laboratories Inc., Logan, UT, cat. SH30070.03HI), 50% L-WRN conditioned media (ATCC, cat. CRL-3276), 1.25 mM N-Acetyl-L-cysteine (Sigma-Aldrich, cat. A9165), 10 mM nicotinamide (Sigma-Aldrich, cat. N0636), 1X B-27 supplement (Thermo Fisher Scientific, cat. 17504044), 1X N-2 supplement (Thermo Fisher Scientific, cat. […]

[1] = curve of first compound, second compound 0.0316 µM
[2] = curve of first compound, second compound 0.1 µM
[3] = curve of first compound, second compound 0.316 µM
[4] = curve of first compound, second compound 1 µM
[5] = curve of first compound, second compound 3.16 µM
[6] = curve of first compound, second compound 10 µM
[7] = second compound 0.0316 µM, first compound 0.0316 µM
[8] = second compound 0.0316 µM, first compound 0.1 µM
[9] = second compound 0.0316 µM, first compound 0.316 µM
[10] = second compound 0.0316 µM, first compound 1 µM
[11] = second compound 0.0316 µM, first compound 3.16 µM
[12] = second compound 0.0316 µM, first compound 10 µM
[13] = second compound 0.1 µM, first compound 0.0316 µM
[14] = second compound 0.1 µM, first compound 0.1 µM
[15] = second compound 0.1 µM, first compound 0.316 µM
[16] = second compound 0.1 µM, first compound 1 µM
[17] = second compound 0.1 µM, first compound 3.16 µM
[18] = second compound 0.1 µM, first compound 10 µM
[19] = second compound 0.316 µM, first compound 0.0316 µM
[20] = second compound 0.316 µM, first compound 0.1 µM
[21] = second compound 0.316 µM, first compound 0.316 µM
[22] = second compound 0.316 µM, first compound 1 µM
[23] = second compound 0.316 µM, first compound 3.16 µM
[24] = second compound 0.316 µM, first compound 10 µM
[25] = second compound 1 µM, first compound 0.0316 µM
[26] = second compound 1 µM, first compound 0.1 µM
[27] = second compound 1 µM, first compound 0.316 µM
[28] = second compound 1 µM, first compound 1 µM
[29] = second compound 1 µM, first compound 3.16 µM
[30] = second compound 1 µM, first compound 10 µM
[31] = second compound 3.16 µM, first compound 0.0316 µM
[32] = second compound 3.16 µM, first compound 0.1 µM
[33] = second compound 3.16 µM, first compound 0.316 µM
[34] = second compound 3.16 µM, first compound 1 µM
[35] = second compound 3.16 µM, first compound 3.16 µM
[36] = second compound 3.16 µM, first compound 10 µM
[37] = second compound 10 µM, first compound 0.0316 µM
[38] = second compound 10 µM, first compound 0.1 µM
[39] = second compound 10 µM, first compound 0.316 µM
[40] = second compound 10 µM, first compound 1 µM
[41] = second compound 10 µM, first compound 3.16 µM
[42] = second compound 10 µM, first compound 10 µM
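Note: spheroids exposed to agents for 7 days before viability reading.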
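Throughout, for viability, T/C: percent of DMSO vehicle control viability so 100% = vehicle and 0% = no viable signal.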

CC1COCCN1c1cc(C2(O)CC3CCC(C2)O3)c2cnn(-c3ccn[nH]3)c2n1 (stereo unspecified) + COC1C(OC(N)=O)C(O)C(Oc2ccc3c(O)c(NC(=O)c4ccc(O)c(CC=C(C)C)c4)c(=O)oc3c2C)OC1(C)C
IC50 [1]: 1360 nM
IC50 [2]: 811 nM
IC50 [3]: 1400 nM
IC50 [4]: 1170 nM
IC50 [5]: 939 nM
IC50 [6]: 1440 nM
viability, T/C [7]: 94.4%
viability, T/C [8]: 80.1%
viability, T/C [9]: 67.3%
viability, T/C [10]: 51.5%
viability, T/C [11]: 43%
viability, T/C [12]: 34.2%
viability, T/C [13]: 109%
viability, T/C [14]: 79.4%
viability, T/C [15]: 60.9%
viability, T/C [16]: 46.8%
viability, T/C [17]: 41.4%
viability, T/C [18]: 34.2%
viability, T/C [19]: 104%
viability, T/C [20]: 84.8%
viability, T/C [21]: 61%
viability, T/C [22]: 52.1%
viability, T/C [23]: 49%
viability, T/C [24]: 34.5%
viability, T/C [25]: 96.6%
viability, T/C [26]: 80.7%
viability, T/C [27]: 65.3%
viability, T/C [28]: 50.2%
viability, T/C [29]: 43.6%
viability, T/C [30]: 40.1%
viability, T/C [31]: 101%
viability, T/C [32]: 83%
viability, T/C [33]: 65%
viability, T/C [34]: 45.8%
viability, T/C [35]: 45.4%
viability, T/C [36]: 34.9%
viability, T/C [37]: 108%
viability, T/C [38]: 83.4%
viability, T/C [39]: 62.5%
viability, T/C [40]: 55.3%
viability, T/C [41]: 45.6%
viability, T/C [42]: 36.3%

C#Cc1c(F)ccc2cc(O)cc(-c3ncc4c(N5CC6CCC(C5)N6)nc(OCC56CCCN5CC(F)C6)nc4c3F)c12 (stereo unspecified) + COC1C(OC(N)=O)C(O)C(Oc2ccc3c(O)c(NC(=O)c4ccc(O)c(CC=C(C)C)c4)c(=O)oc3c2C)OC1(C)C
IC50 [1]: < 31.6 nM
IC50 [2]: < 31.6 nM
IC50 [3]: < 31.6 nM
IC50 [4]: < 31.6 nM
IC50 [5]: < 31.6 nM
IC50 [6]: < 31.6 nM
viability, T/C [7]: 24.1%
viability, T/C [8]: 22.1%
viability, T/C [9]: 15.1%
viability, T/C [10]: 14.3%
viability, T/C [11]: 13.6%
viability, T/C [12]: 14.2%
viability, T/C [13]: 25.4%
viability, T/C [14]: 21.3%
viability, T/C [15]: 17%
viability, T/C [16]: 11.4%
viability, T/C [17]: 12.7%
viability, T/C [18]: 11.7%
viability, T/C [19]: 26.2%
viability, T/C [20]: 18.8%
viability, T/C [21]: 16.5%
viability, T/C [22]: 12.8%
viability, T/C [23]: 13.2%
viability, T/C [24]: 11.3%
viability, T/C [25]: 26.8%
viability, T/C [26]: 22.6%
viability, T/C [27]: 17.7%
viability, T/C [28]: 13.2%
viability, T/C [29]: 11.9%
viability, T/C [30]: 12.4%
viability, T/C [31]: 26.3%
viability, T/C [32]: 19.6%
viability, T/C [33]: 18.8%
viability, T/C [34]: 13.7%
viability, T/C [35]: 12.4%
viability, T/C [36]: 12.2%
viability, T/C [37]: 23.9%
viability, T/C [38]: 22.3%
viability, T/C [39]: 17.2%
viability, T/C [40]: 14.2%
viability, T/C [41]: 13.8%
viability, T/C [42]: 12.7%

CCc1cc2c(N3CCc4c(cc(Cn5ccnc5)cc4-c4cn(C)nc4C(F)(F)F)C3=O)cc(C)nc2c(OC)n1
viability, T/C (compound 0.0316 µM): 102% and 78.7% and 85.8%
viability, T/C (compound 0.1 µM): 92.1% and 90.3% and 81.5%
viability, T/C (compound 0.316 µM): 89.2% and 94.7% and 93.9%
viability, T/C (compound 1 µM): 95.1% and 94.6% and 98.4%
viability, T/C (compound 3.16 µM): 102% and 105% (2×)
viability, T/C (compound 10 µM): 97% and 99% and 107%
IC50 (curve of compound): > 10000 nM
